{"source": "patent US20260232713A1", "about": "“PLECOMACROLIDE DERIVATIVES FOR MHC-I NEF DOWNMODULATION” (priority 2022, published 2026)", "key": {"HIV-Nef [1]": {"biological_target": "T1, HIV-Nef (Human immunodeficiency virus type 1, UniProt P03406)", "T1 sequence (P03406 2-206)": "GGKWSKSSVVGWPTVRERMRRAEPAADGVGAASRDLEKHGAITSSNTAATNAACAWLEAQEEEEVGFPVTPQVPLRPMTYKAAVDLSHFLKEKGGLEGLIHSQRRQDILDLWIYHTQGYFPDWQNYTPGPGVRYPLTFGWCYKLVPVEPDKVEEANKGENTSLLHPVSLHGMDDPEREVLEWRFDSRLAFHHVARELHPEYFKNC", "assay": "Inhibition of HIV-Nef downmodulation of MHC-I HLA-A2 on the surface of HIV ΔGPE infected primary CD4+ T cells (flow cytometry)", "assay_type": "cell-based", "settings": "for IC50: HLA-A2 surface expression, ΔGPE infected primary CD4+ T cells, 24 hours after treatment"}, "V-ATPase [2]": {"biological_target": "T2, V-ATPase (Homo sapiens, UniProt P27449)", "T2 construct": "endogenous in cells; host or cells: primary CD4+ T cells (HIV ΔGPE infected) from donor PBMCs", "T2 sequence (P27449 whole entry, looked up)": "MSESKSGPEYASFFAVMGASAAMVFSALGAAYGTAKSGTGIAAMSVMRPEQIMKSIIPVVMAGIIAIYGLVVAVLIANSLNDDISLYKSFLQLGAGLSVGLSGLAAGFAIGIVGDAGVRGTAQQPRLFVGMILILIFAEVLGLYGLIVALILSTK", "assay": "Lysosomal acidification (Lysotracker mean fluorescence intensity) as indicator of V-ATPase activity in primary CD4+ T cells", "assay_type": "cell-based", "settings": "Lysotracker Red, ΔGPE infected primary CD4+ T cells, 24 hours after treatment; read-out: Lysotracker (V-ATPase IC50, lysosomal neutralization)", "experimental": "(§1) Inhibition of HIV-Nef was measured by assessing its capacity to downmodulate MHC-I HLA-A2 on the surface of primary CD4+ T cells 24-hours after treatment with each compound. V-ATPase inhibition was assessed at the same time point using lysosomal acidification as an indicator of V-ATPase activity. This was measured using a flow cytometric assay that quantified Lysotracker mean fluorescence intensity as previously described (Painter et al., 2020). Cell viability was measured at 24-hour and 72-hour time points using a previously described flow cytometric assay (Painter et al., 2020).\n(§2) Anonymized leukocytes isolated by apheresis were obtained from New York Blood Center and peripheral blood mononuclear cells (PBMCs) were isolated by Ficoll-Paque Plus (17144002; GE Healthcare) centrifugation using SepMate tubes (85450; StemCell Technologies) according to the manufacturers protocol. […] Then, 20-24 hours post-PHA activation, 15 mL of R10/PHA medium is removed and replaced with 5 mL of R10+100u/mL Recombinant Human IL-2 (202|L010; R&D Systems). 48 hours after IL-2 stimulation, primary CD4^+ T cells were infected via spinoculation with previously described HIV ΔGPE construct.\n(§3) 48 hours after spinoculation, cells were pooled and plated in flat bottom 96-well plate. […] Compounds were thawed at room temperature and diluted in R10 medium to 2× starting concentration.\n(§4) All ΔGPE infected cells were collected 24 hours after treatment.\n(§5) All statistical analyses were performed using GraphPad Prism software. Curves were generated using GraphPad Prism software using [Inhibitor] vs. response with variable slope (four parameters)."}, "primary CD4+ T cells": {"tested_on": "primary CD4+ T cells", "assay": "in vitro", "settings": "read-out: Viability (TC50); mock primary CD4+ T cells, 72 hours after treatment", "experimental": "as §1, §2, §3, §4\nAll Mock cells were collected 72 hours after treatment.\nas §5"}, "HIV-Nef [3]": {"biological_target": "T1, HIV-Nef", "settings": "literature report; cited from earlier work"}, "V-ATPase [4]": {"tested_on": "V-ATPase", "settings": "literature report; cited from earlier work"}}, "data": [{"compound": "C/C=C/[C@H]1O[C@@H]([C@@H](C)[C@H](O)[C@H](C)[C@H]2OC(=O)/C(OC)=C/C(C)=C/[C@@H](C)[C@@H](O)[C@@H](CC)[C@@H](O)[C@H](C)C/C(C)=C/C=C/[C@@H]2O)C[C@@H](O)[C@@H]1C", "note": "[Compound S25, 21-Deoxy-16-Hydroxy CMF]", "values": [{"measurement": "IC50", "setting": "HIV-Nef [1]", "result": 400, "unit": "nM"}, {"measurement": "Fold reduction of activity compared to 6", "setting": "HIV-Nef [1]; comparator CMF (6)", "result": "over 200 fold"}, {"measurement": "IC50", "setting": "V-ATPase [2]", "result": "> 1000", "unit": "nM"}, {"measurement": "CC50", "setting": "primary CD4+ T cells", "result": "> 1000", "unit": "nM"}]}, {"compound": "CC[C@H]1OC(=O)[C@H](C)[C@@H](O)[C@H](C)[C@@H](O)[C@@H](C)C[C@@H](C)C(=O)[C@H](C)[C@@H](O)[C@H]1C", "note": "[Compound S31, 6-deoxyerythronolide B, reference compound]", "values": [{"measurement": "IC50", "setting": "HIV-Nef [1]", "result": "> 1000", "unit": "nM"}, {"measurement": "IC50", "setting": "V-ATPase [2]", "result": "> 1000", "unit": "nM"}, {"measurement": "CC50", "setting": "primary CD4+ T cells", "result": "> 1000", "unit": "nM"}]}, {"compound": "bafilomycin D", "values": [{"measurement": "Potency as a Nef inhibitor (previously reported)", "setting": "HIV-Nef [3]", "result": "very poor potency"}, {"measurement": "V-ATPase inhibition (previously reported)", "setting": "V-ATPase [4]", "result": "low level V-ATPase inhibition"}]}]}
